Where two headings read alike, the source gives them in different places. Marks after values point to notes of the source that are not given here.
What was measured:
HepG2 = format: cell-based, human
RAW 264.7 = format: cell-based, mouse
HEK 293T cells [1] = format: cell-based, human
HEK293T [2] = format: cell-based, human
HEK293T cells = format: cell-based, human; conditions: read-out: IC50 halving the HEK293T cells viability
Caco-2 = format: cell-based, human
HEK293T [3] = format: cell-based, human; remark: listed apart in the source
epithelial cell layers = conditions: cited from earlier work
[4] = test system: HepG2, Caco-2, RAW 264.7, and HEK 293T cells
HEK 293T cells [5] = test system: HEK 293T cells
cells = conditions: cited from earlier work
[6] = human (Caco-2), mouse (RAW 264.7)
[7] = read-out: IC50 range in studied cells

Compound: CC(=O)OC[C@]12C[C@H](OC(=O)CC(C)C)C(C)=C[C@H]1O[C@@H]1[C@H](O)[C@@H](O)[C@@]2(C)[C@]12CO2 [HT-2, HT-2 toxin]
- IC50 (HepG2): 47.4 ± 1.29 nM
- IC50 (RAW 264.7): 5.07 ± 0.46 nM
- combination index, silibinin 1.7 µM (HEK 293T cells [1]): 1.10 ± 0.02 Add
- combination index, silibinin 3.4 µM (HEK 293T cells [1]): 1.27 ± 0.11 Ant
- combination index, silibinin 6.8 µM (HEK 293T cells [1]): 1.57 ± 0.15 Ant
- combination index, silibinin 13.6 µM (HEK 293T cells [1]): 1.25 ± 0.08 Ant
- combination index, silibinin 27.3 µM (HEK 293T cells [1]): 1.06 ± 0.07 Add
- combination index, silibinin 54.5 µM (HEK 293T cells [1]): 1.03 ± 0.04 Add
- combination index, silibinin 109.00 µM (HEK 293T cells [1]): 1.08 ± 0.03 Add
- type of interaction, silibinin 1.7 µM (HEK 293T cells [1]): 1.10 ± 0.02 Add (key: Syn: Combination index (CI) < 0.9; Add: 0.9 ≤ CI ≤ 1; Ant: CI > 1)
- type of interaction, silibinin 3.4 µM (HEK 293T cells [1]): 1.27 ± 0.11 Ant (key: Syn: Combination index (CI) < 0.9; Add: 0.9 ≤ CI ≤ 1; Ant: CI > 1)
- type of interaction, silibinin 6.8 µM (HEK 293T cells [1]): 1.57 ± 0.15 Ant (key: Syn: Combination index (CI) < 0.9; Add: 0.9 ≤ CI ≤ 1; Ant: CI > 1)
- type of interaction, silibinin 13.6 µM (HEK 293T cells [1]): 1.25 ± 0.08 Ant (key: Syn: Combination index (CI) < 0.9; Add: 0.9 ≤ CI ≤ 1; Ant: CI > 1)
- type of interaction, silibinin 27.3 µM (HEK 293T cells [1]): 1.06 ± 0.07 Add (key: Syn: Combination index (CI) < 0.9; Add: 0.9 ≤ CI ≤ 1; Ant: CI > 1)
- type of interaction, silibinin 54.5 µM (HEK 293T cells [1]): 1.03 ± 0.04 Add (key: Syn: Combination index (CI) < 0.9; Add: 0.9 ≤ CI ≤ 1; Ant: CI > 1)
- type of interaction, silibinin 109.00 µM (HEK 293T cells [1]): 1.08 ± 0.03 Add (key: Syn: Combination index (CI) < 0.9; Add: 0.9 ≤ CI ≤ 1; Ant: CI > 1)
- IC50 (HEK293T [2]): 21.2 ± 1.6 nM
- IC50 (HEK293T cells): 30 nM
- transepithelial transport, Apical Medium (Caco-2 cells; [6]): 72.63±2.25^f %
- transepithelial transport, Basolateral Medium (Caco-2 cells; [6]): 49.18 ± 1.80^g %
- transepithelial transport, Caco-2 Cells (Caco-2 cells; [6]): 0.01 ± 0.00^a %
- transepithelial transport, Raw 264.7 Cells (Caco-2 cells; [6]): 0.01 ± 0.00^a %
- transepithelial transport, Total (Caco-2 cells; [6]): 121.83 ± 1.33^f %
- IC50 (Caco-2): 44.2 ± 2.26 nM
- combination index, mixture of DAS (6.58 nM) (HEK293T [3]): 0.54 ± 0.03 Syn
- combination index, mixture of T-2 (3.87 nM) (HEK293T [3]): 0.67 ± 0.04 Syn
- type of interaction, mixture of DAS (6.58 nM) (HEK293T [3]): 0.54 ± 0.03 Syn (key: Syn: Combination index (CI) < 0.9; Add: 0.9 ≤ CI ≤ 1; Ant: CI > 1)
- type of interaction, mixture of T-2 (3.87 nM) (HEK293T [3]): 0.67 ± 0.04 Syn (key: Syn: Combination index (CI) < 0.9; Add: 0.9 ≤ CI ≤ 1; Ant: CI > 1)
- transport through the epithelial cell layers (epithelial cell layers): ≤ 32%
- IC50 [4, 7]: 5.07 to 47.4 nM

Compound: CC(C)C[C@@H]1NC(=O)[C@H](C)N(C)C(=O)CNC(=O)/C(=C/c2ccccc2)N(C)C1=O [TEN, tentoxin]
- metabolites found by non-target U-HPLC-MS analysis (Caco-2 cells): metabolite M1, metabolite M2, and metabolite M3
- transepithelial transport, Apical Medium (Caco-2 cells): 28.07 ± 0.62^abc %
- transepithelial transport, Basolateral Medium (Caco-2 cells): 7.25 ± 0.72^ab %
- transepithelial transport, Caco-2 Cells (Caco-2 cells): 0.00 ± 0.00^a %
- transepithelial transport, Raw 264.7 Cells (Caco-2 cells): 0.00 ± 0.00^a %
- transepithelial transport, Total (Caco-2 cells): 35.33 ± 0.10^ab %
- combination index, mixture of DAS (6.58 nM) (HEK293T [3]): 0.92 ± 0.17 Add
- combination index, mixture of HT-2 (21.22 nM) (HEK293T [3]): 0.94 ± 0.04 Add
- combination index, mixture of T-2 (3.87 nM) (HEK293T [3]): 0.92 ± 0.07 Add
- type of interaction, mixture of DAS (6.58 nM) (HEK293T [3]): 0.92 ± 0.17 Add (key: Syn: Combination index (CI) < 0.9; Add: 0.9 ≤ CI ≤ 1; Ant: CI > 1)
- type of interaction, mixture of HT-2 (21.22 nM) (HEK293T [3]): 0.94 ± 0.04 Add (key: Syn: Combination index (CI) < 0.9; Add: 0.9 ≤ CI ≤ 1; Ant: CI > 1)
- type of interaction, mixture of T-2 (3.87 nM) (HEK293T [3]): 0.92 ± 0.07 Add (key: Syn: Combination index (CI) < 0.9; Add: 0.9 ≤ CI ≤ 1; Ant: CI > 1)
- IC50 [4]: > 50 nM
- percentage of DNA in comet tail with respect to the negative control (HEK 293T cells [5]): no significant DNA damage

Compound: beauvericin
- concentration with statistically significant decrease in viability of cells (cells): 3 µM
- combination index, mixture of DAS (6.58 nM) (HEK293T [3]): 0.96 ± 0.04 Add
- combination index, mixture of HT-2 (21.22 nM) (HEK293T [3]): 0.91 ± 0.04 Add
- combination index, mixture of T-2 (3.87 nM) (HEK293T [3]): 0.95 ± 0.07 Add
- type of interaction, mixture of DAS (6.58 nM) (HEK293T [3]): 0.96 ± 0.04 Add (key: Syn: Combination index (CI) < 0.9; Add: 0.9 ≤ CI ≤ 1; Ant: CI > 1)
- type of interaction, mixture of HT-2 (21.22 nM) (HEK293T [3]): 0.91 ± 0.04 Add (key: Syn: Combination index (CI) < 0.9; Add: 0.9 ≤ CI ≤ 1; Ant: CI > 1)
- type of interaction, mixture of T-2 (3.87 nM) (HEK293T [3]): 0.95 ± 0.07 Add (key: Syn: Combination index (CI) < 0.9; Add: 0.9 ≤ CI ≤ 1; Ant: CI > 1)

Compound: diacetoxyscirpenol [DAS]
- IC50 (HepG2): 13.4 ± 1.79 nM
- IC50 (RAW 264.7): 3.66 ± 0.37 nM
- combination index, silibinin 0.9 µM (HEK 293T cells [1]): 1.00 ± 0.04 Add
- combination index, silibinin 1.7 µM (HEK 293T cells [1]): 1.23 ± 0.06 Ant
- combination index, silibinin 3.4 µM (HEK 293T cells [1]): 1.21 ± 0.05 Ant
- combination index, silibinin 6.8 µM (HEK 293T cells [1]): 1.50 ± 0.04 Ant
- combination index, silibinin 13.6 µM (HEK 293T cells [1]): 1.56 ± 0.13 Ant
- combination index, silibinin 27.3 µM (HEK 293T cells [1]): 1.48 ± 0.08 Ant
- combination index, silibinin 54.5 µM (HEK 293T cells [1]): 1.15 ± 0.02 Ant
- combination index, silibinin 109.00 µM (HEK 293T cells [1]): 1.14 ± 0.01 Ant
- type of interaction, silibinin 0.9 µM (HEK 293T cells [1]): 1.00 ± 0.04 Add (key: Syn: Combination index (CI) < 0.9; Add: 0.9 ≤ CI ≤ 1; Ant: CI > 1)
- type of interaction, silibinin 1.7 µM (HEK 293T cells [1]): 1.23 ± 0.06 Ant (key: Syn: Combination index (CI) < 0.9; Add: 0.9 ≤ CI ≤ 1; Ant: CI > 1)
- type of interaction, silibinin 3.4 µM (HEK 293T cells [1]): 1.21 ± 0.05 Ant (key: Syn: Combination index (CI) < 0.9; Add: 0.9 ≤ CI ≤ 1; Ant: CI > 1)
- type of interaction, silibinin 6.8 µM (HEK 293T cells [1]): 1.50 ± 0.04 Ant (key: Syn: Combination index (CI) < 0.9; Add: 0.9 ≤ CI ≤ 1; Ant: CI > 1)
- type of interaction, silibinin 13.6 µM (HEK 293T cells [1]): 1.56 ± 0.13 Ant (key: Syn: Combination index (CI) < 0.9; Add: 0.9 ≤ CI ≤ 1; Ant: CI > 1)
- type of interaction, silibinin 27.3 µM (HEK 293T cells [1]): 1.48 ± 0.08 Ant (key: Syn: Combination index (CI) < 0.9; Add: 0.9 ≤ CI ≤ 1; Ant: CI > 1)
- type of interaction, silibinin 54.5 µM (HEK 293T cells [1]): 1.15 ± 0.02 Ant (key: Syn: Combination index (CI) < 0.9; Add: 0.9 ≤ CI ≤ 1; Ant: CI > 1)
- type of interaction, silibinin 109.00 µM (HEK 293T cells [1]): 1.14 ± 0.01 Ant (key: Syn: Combination index (CI) < 0.9; Add: 0.9 ≤ CI ≤ 1; Ant: CI > 1)
- IC50 (HEK293T [2]): 6.58 ± 0.36 nM
- IC50 (HEK293T cells): 15 nM
- metabolites found by non-target U-HPLC-MS analysis (Caco-2 cells): 15-monoacetoxyscirpenol, 4-monoacetoxyscirpenol, 7-hydroxy, 8β-hydroxy, and deepoxy-15- monoacetoxyscirpenol
- transepithelial transport, Apical Medium (Caco-2 cells): 29.61 ± 0.87^abc %
- transepithelial transport, Basolateral Medium (Caco-2 cells): 40.12 ± 0.50^f %
- transepithelial transport, Caco-2 Cells (Caco-2 cells): 0.02 ± 0.00^a %
- transepithelial transport, Raw 264.7 Cells (Caco-2 cells): 0.02 ± 0.00^a %
- transepithelial transport, Total (Caco-2 cells): 69.77 ± 0.99^cd %
- IC50 (Caco-2): 17.7 ± 0.66 nM
- combination index, mixture of T-2 (3.87 nM) (HEK293T [3]): 0.64 ± 0.01 Syn
- type of interaction, mixture of T-2 (3.87 nM) (HEK293T [3]): 0.64 ± 0.01 Syn (key: Syn: Combination index (CI) < 0.9; Add: 0.9 ≤ CI ≤ 1; Ant: CI > 1)
- IC50 [4, 7]: 3.66 to 17.7 nM

Compound: enniatin A1 [ENN-A1]
- concentration with statistically significant decrease in viability of cells (cells): 1 µM
- combination index, mixture of DAS (6.58 nM) (HEK293T [3]): 0.79 ± 0.04 Syn
- combination index, mixture of HT-2 (21.22 nM) (HEK293T [3]): 0.93 ± 0.01 Add
- combination index, mixture of T-2 (3.87 nM) (HEK293T [3]): 1.27 ± 0.13 Ant
- type of interaction, mixture of DAS (6.58 nM) (HEK293T [3]): 0.79 ± 0.04 Syn (key: Syn: Combination index (CI) < 0.9; Add: 0.9 ≤ CI ≤ 1; Ant: CI > 1)
- type of interaction, mixture of HT-2 (21.22 nM) (HEK293T [3]): 0.93 ± 0.01 Add (key: Syn: Combination index (CI) < 0.9; Add: 0.9 ≤ CI ≤ 1; Ant: CI > 1)
- type of interaction, mixture of T-2 (3.87 nM) (HEK293T [3]): 1.27 ± 0.13 Ant (key: Syn: Combination index (CI) < 0.9; Add: 0.9 ≤ CI ≤ 1; Ant: CI > 1)

Compound: enniatin A [ENN-A]
- concentration with statistically significant decrease in viability of cells (cells): 1 µM
- combination index, mixture of DAS (6.58 nM) (HEK293T [3]): 0.83 ± 0.05 Syn
- combination index, mixture of HT-2 (21.22 nM) (HEK293T [3]): 0.80 ± 0.06 Syn
- combination index, mixture of T-2 (3.87 nM) (HEK293T [3]): 0.86 ± 0.07 Syn
- type of interaction, mixture of DAS (6.58 nM) (HEK293T [3]): 0.83 ± 0.05 Syn (key: Syn: Combination index (CI) < 0.9; Add: 0.9 ≤ CI ≤ 1; Ant: CI > 1)
- type of interaction, mixture of HT-2 (21.22 nM) (HEK293T [3]): 0.80 ± 0.06 Syn (key: Syn: Combination index (CI) < 0.9; Add: 0.9 ≤ CI ≤ 1; Ant: CI > 1)
- type of interaction, mixture of T-2 (3.87 nM) (HEK293T [3]): 0.86 ± 0.07 Syn (key: Syn: Combination index (CI) < 0.9; Add: 0.9 ≤ CI ≤ 1; Ant: CI > 1)

Source: publication PMC7150870 (Toxins, 2020)
